Measured values from publication PMC8410836, “Rational design of hyperstable antibacterial peptides for food preservation” (NPJ Science of Food, 2021).
In brackets after ≈: the same amount, converted by molar mass. Read-outs that look alike come from different tables or passages of the source. Where a SMILES comes first, the peptide text is derived from it. Bridges are numbered along the chain shown (N, C = ends).

Tests used:
[1] = target: T1, bovine trypsin (Bos taurus, UniProt P00760); assay: biochemical; conditions: SEM
Method: (§3) The amidase activity of trypsin and its inhibition was assayed using the chromogenic substrate BAPNA at pH 8.2 in 0.05 M Tris-HCl containing 0.02 M CaCl2 at 37 °C. The assay reaction contained 50 µL of trypsin solution (40–50 μg of trypsin in 1 mM HCl), 50 µL of water, and 125 µL of the substrate. The reaction was carried out at 37 °C for 10 min and stopped by addition of 0.25 mL of 30% acetic acid. […] The trypsin solution was incubated with an aliquot of inhibitor for 10 min at 37 °C and reaction started by the addition of 125 µL substrate and incubated at 37 °C for 10 min. […] The effect of varying substrate concentration (BAPNA) on bovine trypsin in the presence of fixed concentrations of peptides was studied. The inhibition constants (Ki) were evaluated using the double reciprocal and Dixon plot of the data[65],[66]. Data presented are averages and standard error calculated from two biological replicate experiments.

[2] = system: Pectobacterium carotovorum MCC2112
Method: (§1) Four Gram-positive bacteria: Listeria monocytogenes ATCC13932, Bacillus cereus ATCC11778, Staphylococcus aureus ATCC12900, and Micrococcus luteus ATCC4698 and three Gram-negative bacteria: Escherichia coli ATCC11775, Pectobacterium carotovorum MCC2112, and Salmonella typhimurium ATCC9844 were used in this study. These strains were stored at −80 °C in 25% (v/v) glycerol.
(§2) Antimicrobial assays against various bacterial cultures were done using the microdilution broth assay according to the Clinical and Laboratory Standards Institute (CLSI)[64] with some modifications. Mueller-Hinton broth was used to dilute the peptide stock and the bacterial inoculum. Inoculum was prepared from the mid-logarithmic phase culture. Each well of the microtiter plates received aliquots of 100 µL of the media containing different concentrations of peptide ranging from 0.3 to 300 µg/mL. The final concentration of bacteria in the wells was 5 × 10^5 Colony Forming Units (CFU) per mL. Ampicillin was used as positive control. For negative control, ultrapure water was used instead of peptides. Microtiter plates were incubated at 37 °C for 5–6 h with continuous shaking at 130 rpm (M. luteus cells were incubated for 7–8 h). The incubation time used for these assays was initially optimized using a 20-h incubation period. […] MIC assays were performed as three independent experiments in triplicates.

[3] = system: Staphylococcus aureus ATCC12900
Method: as §1, §2

[4] = system: Escherichia coli ATCC11775
Method: as §1, §2

[5] = system: Bacillus cereus ATCC11778
Method: as §1, §2

[6] = system: Micrococcus luteus ATCC4698
Method: as §1, §2

[7] = system: Listeria monocytogenes ATCC13932
Method: as §1, §2

[8] = system: Salmonella typhimurium ATCC9844
Method: as §1, §2

[9] = target: T1, bovine trypsin; conditions: BAPNA substrate, pH 8.2, 0.05 M Tris-HCl, 0.02 M CaCl2, 37 °C; double reciprocal and Dixon plot; mean and standard error of two biological replicates
Method: as §3

[10] = system: ARPE-19 cells; conditions: 16 h, WST-1, Fig. 10a ARPE-19
Method: Cytotoxicity against adult retinal pigmented epithelial (ARPE-19, ATCC CRL2302) cells was measured using WST assay. ARPE-19 cells growing in log phase were seeded into 96-well cell-culture plates at 4 × 10^4 the cells were incubated at 37 °C for 24 h under 5% CO2. Peptide is added with final concentrations of 4–200 µg/mL in Dulbecco’s modified Eagle medium (DMEM/F12). Nutrient mixture media for the treatment group, whereas for the negative control group, media alone was added. The cells were incubated for 16 h at 37 °C under 5% CO2. Ten microliters of WST-1 reagent was added into each well. Plate was incubated at 37 °C for 2 h. Color intensity was measured at 450 nm. Cytotoxicity data presented are averages and standard error from three biological replicate experiments.

[11] = system: human red blood cells (hRBCs); conditions: peptide 0 to 200 μg/mL, 4% hRBCs in PBS, 1 h, 37 °C, absorbance 414 nm, Triton X-100 = 100%; three biological replicates
Method: The hemolytic activity of the peptide was evaluated using human red blood cells (hRBCs). Erythrocytes were separated from 1 mL of blood by centrifugation at 1500 rpm for 10 min. Collected hRBCs were washed three times with PBS, diluted to 4% (v/v) in PBS. Hundred microliters of the hRBCs having peptides ranging from 4 to 200 µg/mL as added into 96-well microtiter plate. The plates were incubated for 1 h at 37 °C without agitation and centrifuged at 1500 rpm for 5 min. Aliquots (100 μL) of the supernatant were transferred to 96-well plates and absorbance was measured at 414 nm. PBS and 1% Triton X-100 were used as control for 0% and 100% hemolysis, respectively. Percentage of hemolysis was calculated as (AT − AC)/(AX − AC) × 100; where AT is the experimental absorbance of treated supernatants, AC is the control absorbance of PBS-treated cell supernatant, and AX is the absorbance of 0.1% (v/v) Triton X-100 lysed cells. Data presented are averages and standard error from three biological replicate experiments.

[12] = microdilution broth, MH broth, 5 × 10^5 CFU/mL, 37 °C, 5–6 h, resazurin
[13] = microdilution broth (CLSI, modified), Mueller-Hinton broth, 5 × 10^5 CFU/mL, 37 °C, 7–8 h, resazurin colour change, three independent experiments in triplicates

T1 sequence (P00760 24-246): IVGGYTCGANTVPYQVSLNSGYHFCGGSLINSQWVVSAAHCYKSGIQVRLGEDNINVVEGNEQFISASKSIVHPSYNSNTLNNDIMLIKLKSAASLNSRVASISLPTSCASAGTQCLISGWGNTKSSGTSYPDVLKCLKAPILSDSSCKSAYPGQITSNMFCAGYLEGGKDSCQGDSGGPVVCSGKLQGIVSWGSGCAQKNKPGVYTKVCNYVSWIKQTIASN

Structure (SMILES) | Ki [1] | MIC Pectobacterium carotovorum [2] | MIC Staphylococcus aureus ([3]; ATCC12900) | MIC Escherichia coli ([4]; ATCC11775) | MIC Bacillus cereus ([5]; ATCC11778) | MIC (µg/mL) M. luteus ([6]; ATCC4698) | MIC Listeria monocytogenes ([7]; ATCC13932) | MIC Salmonella typhimurium ([8]; ATCC9844) | MIC Pectobacterium carotovorum [2, 12] | MIC Staphylococcus aureus [3, 12] | MIC Escherichia coli [4, 12] | MIC Bacillus cereus [5, 12] | MIC (µg/mL) M. luteus [6, 13] | MIC Listeria monocytogenes [7, 12] | MIC Salmonella typhimurium [8, 12] | Ki (M) against bovine trypsin [9] | cell viability ([10]; peptide concentration 200 µg/mL) | cell viability ([10]; peptide concentration range 0–160 µg/mL, three biological replicates) | hemolytic activity [11]
CC[C@H](C)[C@H](NC(=O)[C@@H](NC(=O)[C@H](CO)NC(=O)[C@@H](N)CCCNC(=N)N)C(C)C)C(=O)N[C@@H](Cc1ccccc1)C(=O)NCC(=O)N[C@H]1CSSC[C@@H](C(=O)N[C@@H](Cc2ccccc2)C(=O)N[C@H](C(=O)NCC(=O)N[C@@H](Cc2ccccc2)C(=O)N[C@@H](CCCCN)C(=O)O)C(C)C)NC(=O)[C@H]([C@@H](C)CC)NC(=O)[C@@H]2CCCN2C(=O)[C@@H]2CCCN2C(=O)[C@H]([C@@H](C)CC)NC(=O)[C@H](CCCCN)NC(=O)[C@H](CO)NC(=O)[C@H](CCCCN)NC(=O)[C@H]([C@@H](C)O)NC1=O [HSEP3c] (H-RSVIFGCTKSKIPPICFVGFK-OH; disulfide 7-16; N-terminus and C-terminus assumed) | 1.4 µM | 50 µg/mL (≈ 21.5 µM) | 150 µg/mL (≈ 64.5 µM) | 100 µg/mL (≈ 43 µM) | 100 µg/mL (≈ 43 µM) | 3.125 µg/mL (≈ 1.34 µM) | 50 µg/mL (≈ 21.5 µM) | >150 µg/mL | – | – | – | – | – | – | – | – | – | – | –
CC[C@H](C)[C@H](NC(=O)[C@H](Cc1ccccc1)NC(=O)[C@H](CO)NC(=O)[C@@H](N)CCCNC(=N)N)C(=O)N[C@@H](Cc1ccccc1)C(=O)NCC(=O)N[C@H]1CSSC[C@@H](C(=O)N[C@@H](Cc2ccccc2)C(=O)N[C@H](C(=O)NCC(=O)N[C@@H](Cc2ccccc2)C(=O)N[C@@H](CCCCN)C(=O)O)C(C)C)NC(=O)[C@H]([C@@H](C)CC)NC(=O)[C@@H]2CCCN2C(=O)[C@@H]2CCCN2C(=O)[C@H]([C@@H](C)CC)NC(=O)[C@H](CO)NC(=O)[C@H](CCCCN)NC(=O)[C@H]([C@@H](C)O)NC1=O [HSEP3a] (H-RSFIFGCTKSIPPICFVGFK-OH; disulfide 7-15) | 0.055 µM | – | – | – | – | – | – | – | >150 µg/mL | >150 µg/mL | >150 µg/mL | >150 µg/mL | 12.5 µg/mL (≈ 5.57 µM) | >150 µg/mL | >150 µg/mL | – | – | – | –
CC[C@H](C)[C@H](NC(=O)[C@@H](NC(=O)[C@H](CO)NC(=O)[C@@H](N)CCCNC(=N)N)C(C)C)C(=O)N[C@@H](Cc1ccccc1)C(=O)NCC(=O)N[C@H]1CSSC[C@@H](C(=O)N[C@@H](Cc2ccccc2)C(=O)N[C@H](C(=O)NCC(=O)N[C@H](C(=O)N[C@@H](CCCNC(=N)N)C(=O)O)[C@@H](C)O)C(C)C)NC(=O)[C@H]([C@@H](C)CC)NC(=O)[C@@H]2CCCN2C(=O)[C@@H]2CCCN2C(=O)[C@H]([C@@H](C)CC)NC(=O)[C@H](CO)NC(=O)[C@H](CCCCN)NC(=O)[C@H]([C@@H](C)O)NC1=O [HSEP3b] (H-RSVIFGCTKSIPPICFVGTR-OH; disulfide 7-15) | 0.5 µM | – | – | – | – | – | – | – | 50 µg/mL (≈ 22.9 µM) | >150 µg/mL | >150 µg/mL | 50 µg/mL (≈ 22.9 µM) | 6.25 µg/mL (≈ 2.87 µM) | 100 µg/mL (≈ 45.9 µM) | >150 µg/mL | – | – | – | –
CC[C@H](C)[C@H](NC(=O)[C@@H](NC(=O)[C@@H](N)CO)C(C)C)C(=O)N[C@@H](Cc1ccccc1)C(=O)NCC(=O)N[C@H]1CSSC[C@@H](C(=O)N[C@@H](Cc2ccccc2)C(=O)N[C@H](C(=O)NCC(=O)N[C@@H](Cc2ccccc2)C(=O)N[C@@H](CCCCN)C(=O)O)C(C)C)NC(=O)[C@H]([C@@H](C)CC)NC(=O)[C@@H]2CCCN2C(=O)[C@@H]2CCCN2C(=O)[C@H]([C@@H](C)CC)NC(=O)[C@H](CO)NC(=O)CNC(=O)[C@H]([C@@H](C)O)NC1=O [HSEP2-K8G] (H-SVIFGCTGSIPPICFVGFK-OH; disulfide 6-14) | – | – | – | – | – | 37.5 µg/mL (≈ 19 µM) | – | – | – | – | – | – | – | – | – | failed to show any trypsin inhibition | – | – | –
CC[C@H](C)[C@H](NC(=O)[C@@H](NC(=O)[C@@H](N)CO)C(C)C)C(=O)N[C@@H](Cc1ccccc1)C(=O)NCC(=O)N[C@H]1CSSC[C@@H](C(=O)N[C@@H](Cc2ccccc2)C(=O)N[C@H](C(=O)NCC(=O)N[C@@H](Cc2ccccc2)C(=O)N[C@@H](CCCCN)C(=O)O)C(C)C)NC(=O)[C@H]([C@@H](C)CC)NC(=O)[C@@H]2CCCN2C(=O)[C@@H]2CCCN2C(=O)[C@H]([C@@H](C)CC)NC(=O)[C@H](CO)NC(=O)[C@H](CCCCN)NC(=O)[C@H]([C@@H](C)O)NC1=O [HSEP2] (H-SVIFGCTKSIPPICFVGFK-OH; disulfide 6-14) | 0.58 µM | – | – | – | – | – | – | – | 150 µg/mL (≈ 73.5 µM) | >150 µg/mL | 150 µg/mL (≈ 73.5 µM) | 75 µg/mL (≈ 36.7 µM) | 6.25 µg/mL (≈ 3.06 µM) | >150 µg/mL | >150 µg/mL | – | > 70% | > 80% | < 5%
CC[C@H](C)[C@H](NC(=O)[C@H](Cc1c[nH]c2ccccc12)NC(=O)[C@H](CO)NC(=O)[C@@H](N)CCCNC(=N)N)C(=O)N[C@@H](Cc1ccccc1)C(=O)N[C@H]1CSSC[C@@H](C(=O)N[C@@H](Cc2ccccc2)C(=O)N[C@H](C(=O)NCC(=O)N[C@@H](Cc2c[nH]c3ccccc23)C(=O)N[C@@H](CCCNC(=N)N)C(=O)O)C(C)C)NC(=O)[C@H]([C@@H](C)CC)NC(=O)[C@@H]2CCCN2C(=O)[C@@H]2CCCN2C(=O)[C@H]([C@@H](C)CC)NC(=O)[C@H](Cc2ccc(O)cc2)NC(=O)[C@H](CCCNC(=N)N)NC(=O)[C@H]([C@@H](C)O)NC1=O [HSEP3d] (H-RSWIFCTRYIPPICFVGWR-OH; disulfide 6-14; N-terminus and C-terminus assumed) | 0.37 µM | >150 µg/mL | >150 µg/mL | >150 µg/mL | 100 µg/mL (≈ 41.7 µM) | 3.125 µg/mL (≈ 1.3 µM) | >150 µg/mL | >150 µg/mL | – | – | – | – | – | – | – | – | – | – | –
CC[C@H](C)[C@H](NC(=O)[C@@H](NC(=O)[C@H](CO)NC(=O)[C@@H](N)CCCNC(=N)N)C(C)C)C(=O)N[C@@H](Cc1ccccc1)C(=O)NCC(=O)N[C@H]1CSSC[C@@H](C(=O)N[C@@H](Cc2ccccc2)C(=O)N[C@H](C(=O)NCC(=O)N[C@@H](Cc2ccccc2)C(=O)N[C@@H](CCCCN)C(=O)O)C(C)C)NC(=O)[C@H](Cc2ccccc2)NC(=O)[C@H](CCCNC(=N)N)NC(=O)[C@H](CCCNC(=N)N)NC(=O)[C@H](Cc2ccc(O)cc2)NC1=O [HSEP3-∆TL,CL^+] (H-RSVIFGCYRRFCFVGFK-OH; disulfide 7-12) | – | >150 µg/mL | >150 µg/mL | >150 µg/mL | >150 µg/mL | 3.125 µg/mL (≈ 1.5 µM) | >150 µg/mL | >150 µg/mL | – | – | – | – | – | – | – | did not show any anti-trypsin activity | – | – | –
